This note sets out measurements from the OPERA property sets (Mansouri et al. 2018).

Molecules are shown by their SMILES.

Conditions in the first series: not given
`C1CCCCCC1`: the boiling point turned out to be 118 °C, the log10 vapour pressure (mmHg) was 1.33 and the melting point is -8 °C.
With `CCC(C)c1ccccc1O` (stereo unspecified), the boiling point was 228 °C, the melting point was 16 °C and the ready biodegradability result was “not readily biodegradable”.
The compound `COc1ccc2c(OC(C)=O)c(OC)c(OC)c(OC(C)=O)c2c1` had a melting point of 77.5 °C.
Take `O=C(O)CNC(=O)c1ccccc1O`: the melting point is 168 °C.
Turning to `CN(N=O)c1ccc(N=O)cc1`, the melting point stood at 101 °C.
`CCCCCCCCOC(=O)c1cc(O)c(O)c(O)c1`: the melting point is 102 °C.
Same read-out and setting: the figure for `Cc1cnc(NS(=O)(=O)c2ccc(N)cc2)nc1` is 262 °C; for `CC(=O)c1ccc(O[C@@H]2O[C@H](CO)[C@@H](O)[C@H](O)[C@H]2O)cc1` it is 196 °C.
For `C=COC(=O)CCCCC`, the ready biodegradability entry is “readily biodegradable”.
`O=C1C2CC=CCC2C(=O)N1SC(Cl)(Cl)Cl` (stereo unspecified): the log10 Koc (L/kg) came to 2.3, the log10 vapour pressure (mmHg) is -7.05, the melting point worked out at 178 °C and the ready biodegradability result is “not readily biodegradable”.
Regarding `COc1ccc(COC(=O)Cc2ccccc2)cc1`, the boiling point was 370 °C.
On the same count and under the same terms, then `Cc1cccc(Cl)c1O`, with 189 °C.
For `CCC1CCCCC1`, the boiling point was determined as 132 °C, the log10 biodegradation half-life (days) was determined as 0.301, the log10 vapour pressure (mmHg) was 1.11 and the melting point was -111 °C. Moreover, the ready biodegradability result was “not readily biodegradable”.
Turning to `Cc1cc(C)c(Br)c(C)c1Br`, the boiling point was 285 °C and the melting point worked out at 65.5 °C.
In turn, `O=S(=O)(O)c1ccc2cc(O)ccc2c1` had a melting point of 125 °C.
Regarding `CCCCCCCCCCCCCCCCC#N`, the boiling point worked out at 349 °C and the melting point worked out at 34 °C.
The corresponding values for `O=C=C=C=O` are 6.8 °C and -107 °C.
Consider `CCCCCCCOc1ccc(O)cc1`, for which the melting point was 61.5 °C.
`N#Cc1ccco1`: the boiling point came to 147 °C.
The compound `COc1ccc(O)c(C=O)c1` gave a boiling point of 248 °C and a melting point of 4 °C.
Regarding `CC(N)c1ccccc1` (stereo unspecified), the boiling point is 185 °C.
`CCOC(O)C(Cl)(Cl)Cl` (stereo unspecified) gave a boiling point of 116 °C and a melting point of 56.5 °C.
In the case of `CC(CCO)CC(C)(C)C` (stereo unspecified), the boiling point stood at 194 °C, the log10 vapour pressure (mmHg) is -0.523 and the ready biodegradability entry is listed as “not readily biodegradable”.
As to `COC(=O)CCCC(=O)OC`, the boiling point was determined as 214 °C, the log10 vapour pressure (mmHg) was -0.745, the melting point is -42.5 °C and the ready biodegradability entry is “readily biodegradable”.
Consider `CC(=O)Oc1cccc(C(=O)O)c1OC(C)=O`, for which the melting point turned out to be 149 °C.
Turning to `Clc1ccc2c(Cl)cccc2c1Cl`, the log10 Koa is 7.5.
For the compound `Cc1csc(C)n1`, the boiling point turned out to be 146 °C and the log10 vapour pressure (mmHg) turned out to be 0.706.
In turn, `COc1cc(Cl)ccc1O` gave a boiling point of 241 °C and a melting point of 16.5 °C.
In turn, `Cc1cccc2c1ccc1c3ccccc3ccc21` returned a melting point of 256 °C.
In turn, `BrC1CCCC1` gave a boiling point of 138 °C.
In the case of `CC(=O)CF`, the boiling point stood at 77 °C and the log10 vapour pressure (mmHg) stood at 1.8.
Turning to `COC(=O)C1(S(=O)(=O)c2ccc(Br)cc2)CCC1`, the melting point is 95 °C.
Take `C=CC(=O)OCCOCC`: the boiling point stood at 174 °C and the melting point is -47 °C.
As for `CCCCCCCCCCCCCCCCCC(=O)OC1CCCCC1`, the melting point stood at 44 °C.
`Clc1nc2ccccc2o1` returned a boiling point of 202 °C.
On to `O=C(O)/C=C\C(=O)O`, for which the melting point turned out to be 130 °C and the ready biodegradability entry was “readily biodegradable”.
Regarding `Oc1ccccc1-c1ccccc1O`, the boiling point was found to be 320 °C and the melting point was 109 °C.
Compound `CCC(=O)C(C)C` yielded a boiling point of 114 °C and a log10 vapour pressure (mmHg) of 1.26.
On to `CC=CC(C)=O`, for which the boiling point stood at 122 °C.
`CCCCCCOc1ccccc1C(N)=O` showed a melting point of 71 °C.
Consider `CCCCC(CC)C(=O)OCC(COC(=O)C(CC)CCCC)(COC(=O)C(CC)CCCC)COC(=O)C(CC)CCCC` (stereo unspecified), for which the ready biodegradability result was “not readily biodegradable”.

The same series, now with this note: fish.
`O=C1C2CC=CCC2C(=O)N1SC(Cl)(Cl)Cl` (stereo unspecified): the log10 BCF was determined as 1.98.
The same measure, in the same setting: then `CC(N)c1ccccc1` (stereo unspecified), with 0.82.
